Test results reported in patent publication US6177592A, “Compounds” (priority 1997, dated 2001).

Assays:
IMC = assay: IMC/CDF1 mice macrobiotic effect; assay type: in vivo
EAC = assay: EAC/DDY mice macrobiotic effect; assay type: in vivo
mouse leukemia P-388 = assay: Mouse leukemia P-388 survival (macrobiotic effect) in DBA/2 mice; assay type: in vivo; conditions: 10 mg/kg/day i.p., five days
Method: GM was diluted with a physiological saline solution to a predetermined concentration and subjected to the following tests.
(2) Mouse leukemia P-388 (1.1×10^6 cells/mouse) was intraperitoneally injected to female DBA/2 mice (body weight: about 20 g) of seven weeks age. After that, GM, CM, GD or CD (10 mg/kg/day) was intraperitoneally injected for consecutive five clays. In the meanwhile, a physiological saline solution was intraperitoneally injected to the control group by the same manner. In the two group each consisting of eight mice, survived numbers, average survived days and macrobiotic rate of the mice were calculated.

[1] = tested on: heat shock protein of 70 kDa (HSP70); assay: Induction of heat shock protein of 70 kDa in HL-60; assay type: cell-based, human; parameters: key to Induction of Heat Shock Protein: -: no induction was noted; ±: the induction was slight; indicates degree of intensity of induction and the more the numbers of "+", the more the intensity of induction; ++: the more the numbers of "+", the more the intensity of induction; +++: the more the numbers of "+", the more the intensity of induction; conditions: for action of inducing the heat shock protein (in words): Example 14, compared with GM and CM
Method: (1) An RPMI 1640 medium (5 ml) containing 10% of fetal bovine serum which contained 2×10^5 cells/ml of HL-60 (ATCC CCL-24C) was placed in each well of a six-well plate, incubated at 37° C. for 24 hours in the presence of 5% of CO2, then GM was added thereto to make its final concentration 0, 0.5, 1.0, 3.0, 5.0, 10.0 or 20.0 μM and the incubation was further continued for eight hours more.
After completion of the incubation, cell numbers were counted and the cells were recovered by centrifugation and washed with PBS to prepare GM-treated cells. In the meanwhile, cells which were heated at 45° C. for ten minutes followed by subjecting to the same incubation were prepared as well.
The cells treated as such were subjected to an SDS-PAGE by a method mentioned in "Molecular Cloning" [Cold Spring Harbor Laboratory Press, (1989)]. The treated cells were suspended in an SDS-PAGE sample buffer to make the concentration 2.5×10^6 cells/ml, the resulting cell suspension was treated at 100° C. for ten minutes and each 5 μl thereof was applied to two sheets of SDS-PAGE gels (5% stacking gel; 10% separation gel) to conduct an electrophoresis. One of the gels was stained with Coomassie Brilliant Blue R250 while another gel was subjected to a blotting to a polyvinylidene difluoride transfer membrane (Immobilon™, manufactured by Millipore, catalog no. IPVH000-10). The membrane was subjected to a blocking at 4° C. for one night with Block Ace (manufactured by Dainippon Pharmaceutical; catalog no. UK-B25).
The blocked membrane was made to react with monoclonal antibody HSP 72/73 (Ab-1) (manufactured by Oncogene Research Products, catalog no. HSP01) which specifically reacted with heat-induced heat shock protein of 70 kDa and washed with TBS containing 0.05% of Tween 20 followed by further washing with TBS. After that, it was made to react with peroxidase-compounded secondary antibody HRP-Rabbit Anti-Mouse IgG (H+L) (manufactured by Zymed Laboratories, catalog no. 61-6520) and washed by the same manner as in the above operation. The membranes which were treated with primary and secondary antibodies as such were made to react with Renaissance™ (a chemiluiminor reagent manufactured by Dupont NEN, catalog no. NEL-100) and photosensitized with an X-ray film to detect the induction of heat shock protein of 70 kDa.
(2) CM was added to the incubated cells to make its final concentration 0, 10, 20, 30, 40 or 50 μM and expression of HSP70 was measured by the method as mentioned in Example 14-(1).

[2] = Blood sugar, insulin and lipid in KK-Ay mice; assay type: in vivo, mouse (KK-A^y)
Method: KK-A^y Mice (male; four weeks age) were purchased from Clea Japan and, after breeding at our end until ten weeks age, GM was orally administered for 21 days and its influence on sugar, insulin and lipid in blood was investigated. Doses of GM were 30, 100 and 300 mg/kg.
Incidentally, the animals were grouped into four (each group consisting of ten animals) and the four groups were administered with physiological saline solution (5 ml/kg) or 30, 100 or 300 mg/5 ml/kg of GM. Each test substance was orally administered once daily for 21 days and, on the final day of administration, the animals were anesthetized with ether after four hours from the administration of the test substance and blood was collected from artery of lower abdomen. Insulin in serum was measured by an enzyme-immunoassay (commercially available kit: Glazym Insulin-EIATEST,manufactured by Wako Pure Chemicals). Sugar, triglycerides and free fatty acids in serum were measured using an automatic analyzer (type 7070, manufactured by Hitachi) by a hexonase-G6PDH method, a GPO.cndot.DAOS method and an ACS.cndot.ACOD method, respectively. Total cholesterol in serum was measured using an automatic analyzer (type 7070, manufactured by Hitachi) by a cholesterol-oxidase, DAOS method.

[3] = 30, 100, 300 mg/kg oral, 21 days

N[C@@H](CSC1C=C(O)C(=O)C1)C(=O)O (stereo partly shown) [CM]
macrobiotic effect (IMC): same macrobiotic effect
macrobiotic effect (EAC): same macrobiotic effect
macrobiotic effect (average survived days) (mouse leukemia P-388): significant macrobiotic effect
Induction of Heat Shock Protein ([1]; 10 μM CM): +
Induction of Heat Shock Protein ([1]; 20 μM CM): ++
Induction of Heat Shock Protein ([1]; 30 μM CM): ++
Induction of Heat Shock Protein ([1]; 40 μM CM): +
Induction of Heat Shock Protein ([1]; 50 μM CM): +
action of inducing the heat shock protein (in words) [1]: action of inducing the heat shock protein
triglycerides in serum [2, 3]: decreased

N[C@@H](CCC(=O)N[C@@H](CSC1C=C(O)C(=O)C1)C(=O)NCC(=O)O)C(=O)O (stereo partly shown) [GM, 2-hydroxy-4-glutathion-S-yl-2-cyclopenten-1-one]
macrobiotic effect (IMC): same macrobiotic effect
macrobiotic effect (EAC): same macrobiotic effect
macrobiotic effect (average survived days) (mouse leukemia P-388): significant macrobiotic effect
Induction of Heat Shock Protein ([1]; 0.5 μM GM, eight hours): ±
Induction of Heat Shock Protein ([1]; 1.0 μM GM, eight hours): ±
Induction of Heat Shock Protein ([1]; 3.0 μM GM, eight hours): +
Induction of Heat Shock Protein ([1]; 5.0 μM GM, eight hours): +
Induction of Heat Shock Protein ([1]; 10 μM GM, eight hours): ++
Induction of Heat Shock Protein ([1]; 20 μM GM, eight hours): ++
action of inducing the heat shock protein (in words) [1]: action of inducing the heat shock protein
blood sugar [2, 3]: decreased in each of the groups administered with GM
free fatty acids in serum [2, 3]: decreased
insulin in serum [2, 3]: decreased in each of the groups administered with GM
total cholesterol in serum [2, 3]: de creased
effect of lowering blood sugar, insulin and lipid ([2]; Example 13, summary): effect of lowering blood sugar, insulin and lipid
